According to patent publication US20260250290A1 (BRISTOL-MYERS SQUIBB COMPANY, priority 2023, published 2026):
Counter-ions that a name gives are not always drawn.

target: T1, full length SGK1 (Homo sapiens, UniProt O00141); test: SGK1 inhibition Assay A (Caliper LabChip electrophoretic separation of fluorescent peptide substrate and phosphorylated product); format: biochemical; conditions: Assay A; 20 μM ATP, 40 min incubation; read-out: SGK1 IC50
T1 construct: 125 μM full length SGK1 (Life Technologies Part #PR7358A); purchased Life Technologies PR7358A
T1 sequence (O00141 1-431): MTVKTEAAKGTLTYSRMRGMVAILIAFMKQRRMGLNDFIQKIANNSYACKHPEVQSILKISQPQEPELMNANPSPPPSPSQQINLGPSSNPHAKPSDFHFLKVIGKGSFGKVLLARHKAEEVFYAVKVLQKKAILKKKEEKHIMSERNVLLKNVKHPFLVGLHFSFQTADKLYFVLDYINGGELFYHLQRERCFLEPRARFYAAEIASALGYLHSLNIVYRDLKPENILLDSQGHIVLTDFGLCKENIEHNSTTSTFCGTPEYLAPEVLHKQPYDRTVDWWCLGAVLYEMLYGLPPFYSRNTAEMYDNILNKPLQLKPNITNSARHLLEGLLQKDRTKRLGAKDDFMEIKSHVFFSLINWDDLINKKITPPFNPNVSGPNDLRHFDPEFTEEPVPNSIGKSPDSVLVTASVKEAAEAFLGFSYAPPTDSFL

Structure (SMILES)	IC50 [nM]
CN1CCN(c2cccc(C(=O)N[C@@H]3CCCN(c4cc(-c5ccc(C#N)nc5)n5ncnc(N)c45)C3)n2)CC1 [Example 785, (R)—N-(1-(4-amino-7-(6-cyanopyridin-3-yl)pyrrolo[2,1-f][1,2,4]triazin-5-yl)piperidin-3-yl)-6-(4-methylpiperazin-1-yl)picolinamide]	7
COc1cc(-c2cc(N3CCC[C@@H](NC(=O)c4cccc(N5CCN(C)CC5)n4)C3)c3c(N)ncnn23)ccn1 [Example 786, (R)-N-(1-(4-amino-7-(2-methoxypyridin-4-yl)pyrrolo[2,1-f][1,2,4]triazin-5-yl)piperidin-3-yl)-6-(4-methylpiperazin-1-yl)picolinamide]	6
CN1CCN(c2cccc(C(=O)N[C@@H]3CCCN(c4cc(-c5cncnc5)n5ncnc(N)c45)C3)n2)CC1 [Example 787, (R)-N-(1-(4-amino-7-(pyrimidin-5-yl)pyrrolo[2,1-f][1,2,4]triazin-5-yl)piperidin-3-yl)-6-(4-methylpiperazin-1-yl)picolinamide]	77
COc1ncc(-c2cc(N3CCC[C@@H](NC(=O)c4cccc(N5CCN(C)CC5)n4)C3)c3c(N)ncnn23)cn1 [Example 788, (R)-N-(1-(4-amino-7-(2-methoxypyrimidin-5-yl)pyrrolo[2,1-f][1,2,4]triazin-5-yl)piperidin-3-yl)-6-(4-methylpiperazin-1-yl)picolinamide]	434
CC(=O)c1ncc(-c2cc(N3CCC[C@@H](NC(=O)c4cccc(N5CCN(C)CC5)n4)C3)c3c(N)ncnn23)s1 [Example 791, (R)-N-(1-(7-(2-acetylthiazol-5-yl)-4-aminopyrrolo[2,1-f][1,2,4]triazin-5-yl)piperidin-3-yl)-6-(4-methylpiperazin-1-yl)picolinamide]	15
CC(C)n1cc(-c2cc(N3CCC[C@@H](NC(=O)c4cccc(N5CCN(C)CC5)n4)C3)c3c(N)ncnn23)ccc1=O [Example 792, (R)-N-(1-(4-amino-7-(1-isopropyl-6-oxo-1,6-dihydropyridin-3-yl)pyrrolo[2,1-f][1,2,4]triazin-5-yl)piperidin-3-yl)-6-(4-methylpiperazin-1-yl)picolinamide]	29
CN1CCN(c2cccc(C(=O)N[C@@H]3CCCN(c4cc(-c5ccnn5C)n5ncnc(N)c45)C3)n2)CC1 [Example 795, (R)-N-(1-(4-amino-7-(1-methyl-1H-pyrazol-5-yl)pyrrolo[2,1-f][1,2,4]triazin-5-yl)piperidin-3-yl)-6-(4-methylpiperazin-1-yl)picolinamide]	88
CC(C)n1nccc1-c1cc(N2CCC[C@@H](NC(=O)c3cccc(N4CCN(C)CC4)n3)C2)c2c(N)ncnn12 [Example 796, (R)-N-(1-(4-amino-7-(1-isopropyl-1H-pyrazol-5-yl)pyrrolo[2,1-f][1,2,4]triazin-5-yl)piperidin-3-yl)-6-(4-methylpiperazin-1-yl)picolinamide]	785
CN1CCN(c2cccc(C(=O)N[C@@H]3CCCN(c4cc(-c5ccc(=O)n(C)c5)n5ncnc(N)c45)C3)n2)CC1 [Example 797, (R)-N-(1-(4-amino-7-(1-methyl-6-oxo-1,6-dihydropyridin-3-yl)pyrrolo[2,1-f][1,2,4]triazin-5-yl)piperidin-3-yl)-6-(4-methylpiperazin-1-yl)picolinamide]	13
CN1CCN(c2cccc(C(=O)N[C@@H]3CCCN(c4cc(-c5ccc(=O)[nH]c5)n5ncnc(N)c45)C3)n2)CC1 [Example 798, (R)-N-(1-(4-amino-7-(6-oxo-1,6-dihydropyridin-3-yl)pyrrolo[2,1-f][1,2,4]triazin-5-yl)piperidin-3-yl)-6-(4-methylpiperazin-1-yl)picolinamide]	21
CCn1cc(-c2cc(N3CCC[C@@H](NC(=O)c4cccc(N5CCN(C)CC5)n4)C3)c3c(N)ncnn23)ccc1=O [Example 799, (R)-N-(1-(4-amino-7-(1-ethyl-6-oxo-1,6-dihydropyridin-3-yl)pyrrolo[2,1-f][1,2,4]triazin-5-yl)piperidin-3-yl)-6-(4-methylpiperazine-1-yl)picolinamide]	3
CN1CCN(c2cccc(C(=O)N[C@@H]3CCCN(c4cc(-c5ccc(-n6cncn6)nc5)n5ncnc(N)c45)C3)n2)CC1 [Example 800, (R)-N-(1-(7-(6-(1H-1,2,4-triazol-1-yl)pyridin-3-yl)-4-aminopyrrolo[2,1-f][1,2,4]triazin-5-yl)piperidin-3-yl)-6-(4-methylpiperazin-1-yl)picolinamide]	17
CC(=O)c1ccc(-c2cc(N3CCC[C@@H](NC(=O)c4cccc(N5CCN(C)CC5)n4)C3)c3c(N)ncnn23)cc1 [Example 801, (R)-N-(1-(7-(4-acetylphenyl)-4-aminopyrrolo[2,1-f][1,2,4]triazin-5-yl)piperidin-3-yl)-6-(4-methylpiperazin-1-yl)picolinamide]	26
CN1CCN(c2cccc(C(=O)N[C@@H]3CCCN(c4cc(-c5ccn(C)c(=O)c5)n5ncnc(N)c45)C3)n2)CC1 [Example 802, (R)-N-(1-(4-amino-7-(1-methyl-2-oxo-1,2-dihydropyridin-4-yl)pyrrolo[2,1-f][1,2,4]triazin-5-yl)piperidin-3-yl)-6-(4-methylpiperazin-1-yl)picolinamide]	237
CN1CCN(c2cccc(C(=O)N[C@@H]3CCCN(c4cc(-c5cnn(C6CCOC6)c5)n5ncnc(N)c45)C3)n2)CC1 (stereo partly drawn) [Example 803, N-((3R)-1-(4-amino-7-(1-(tetrahydrofuran-3-yl)-1H-pyrazol-4-yl)pyrrolo[2,1-f][1,2,4]triazin-5-yl)piperidin-3-yl)-6-(4-methylpiperazin-1-yl)picolinamide]	2050
COc1ccc(OC(=O)N[C@@H]2CCCN(c3cc(C4=CCN(C(C)=O)C4)n4ncnc(N)c34)C2)cc1 [Example 812, 4-methoxyphenyl (R)-(1-(7-(1-acetyl-2,5-dihydro-1H-pyrrol-3-yl)-4-aminopyrrolo[2,1-f][1,2,4]triazin-5-yl)piperidin-3-yl)carbamate TFA salt]	984
CC(=O)N1CC=C(c2cc(N3CCC[C@@H](NC(=O)c4cccc(N5CCNCC5)n4)C3)c3c(N)ncnn23)C1 [Example 813, (R)—N-(1-(7-(1-acetyl-2,5-dihydro-1H-pyrrol-3-yl)-4-aminopyrrolo[2,1-f][1,2,4]triazin-5-yl)piperidin-3-yl)-6-(piperazin-1-yl)picolinamide]	32
CC(=O)N1CC=C(c2cc(N3CCC[C@@H](NC(=O)c4cccc(N5C[C@H]6CC[C@@H](C5)N6)n4)C3)c3c(N)ncnn23)C1 [Example 814, N—((R)-1-(7-(1-acetyl-2,5-dihydro-1H-pyrrol-3-yl)-4-aminopyrrolo[2,1-f][1,2,4]triazin-5-yl)piperidin-3-yl)-6-((1R,5S)-3,8-diazabicyclo[3.2.1]octan-3-yl)picolinamide]	9
CC(=O)N1CC=C(c2cc(N3CCC[C@@H](NC(=O)c4cc5c(s4)CCNC5)C3)c3c(N)ncnn23)C1 [Example 815, (R)—N-(1-(7-(1-acetyl-2,5-dihydro-1H-pyrrol-3-yl)-4-aminopyrrolo[2,1-f][1,2,4]triazin-5-yl)piperidin-3-yl)-4,5,6,7-tetrahydrothieno[3,2-c]pyridine-2-carboxamide TFA salt]	104
C#Cc1cc(N2CCC[C@@H](NC(=O)c3ccc(Cl)s3)C2)c2c(N)ncnn12 [Example 862, (R)—N-(1-(4-amino-7-ethynylpyrrolo[2,1-f][1,2,4]triazin-5-yl)piperidin-3-yl)-5-chlorothiophene-2-carboxamide]	111
CC(C)(C)OC(=O)CCn1cc(-c2cc(N3CCC[C@@H](NC(=O)c4ccc(Cl)s4)C3)c3c(N)ncnn23)nn1 [Example 863, tert-butyl (R)-3-(4-(4-amino-5-(3-(5-chlorothiophene-2-carboxamido)piperidin-1-yl)pyrrolo[2,1-f][1,2,4]triazin-7-yl)-1H-1,2,3-triazol-1-yl)propanoate]	467
Nc1ncnn2c(-c3cn(CCC(=O)O)nn3)cc(N3CCC[C@@H](NC(=O)c4ccc(Cl)s4)C3)c12 [Example 864, (R)-3-(4-(4-amino-5-(3-(5-chlorothiophene-2-carboxamido)piperidin-1-yl)pyrrolo[2,1-f][1,2,4]triazin-7-yl)-1H-1,2,3-triazol-1-yl)propanoic acid]	120
NC(=O)Cn1cc(-c2cc(N3CCC[C@@H](NC(=O)c4ccc(Cl)s4)C3)c3c(N)ncnn23)nn1 [Example 865, (R)—N-(1-(4-amino-7-(1-(2-amino-2-oxoethyl)-1H-1,2,3-triazol-4-yl)pyrrolo[2,1-f][1,2,4]triazin-5-yl)piperidin-3-yl)-5-chlorothiophene-2-carboxamide]	731
Nc1ncnn2c(-c3cn(C4CCNC4)nn3)cc(N3CCC[C@@H](NC(=O)c4ccc(Cl)s4)C3)c12 (stereo partly drawn) [Example 866, N-((3R)-1-(4-amino-7-(1-(pyrrolidin-3-yl)-1H-1,2,3-triazol-4-yl)pyrrolo[2,1-f][1,2,4]triazin-5-yl)piperidin-3-yl)-5-chlorothiophene-2-carboxamide]	517
Nc1ncnn2c(-c3cn(CC(=O)O)nn3)cc(N3CCC[C@@H](NC(=O)c4ccc(Cl)s4)C3)c12 [Example 867, (R)-2-(4-(4-amino-5-(3-(5-chlorothiophene-2-carboxamido)piperidin-1-yl)pyrrolo[2,1-f][1,2,4]triazin-7-yl)-1H-1,2,3-triazol-1-yl)acetic acid]	213
